The source of these data is PMC12677653, “Inhibition of Tumor Lipogenesis and Growth by Peptide‐Based Targeting of SREBP Activation” (Advanced Science, 2025).

What all share (assay type): cell-based, human
The subject of assay [1] is Insig1 S207 phosphorylation. Briefly: Immunoblot of Insig1 S207 phosphorylation, HCT116. Particulars: HCT116 cells, peptide 15 μM 1 h before IGF1 100 ng/mL. As to the method:
Cellular proteins were extracted using ice‐cold lysis buffer [50 mM Tris‐HCl (pH 7.5), 150 mM NaCl, 0.1% SDS, 1% Triton X‐100, 1 mM DTT, 0.5 mM EDTA] supplemented with protease inhibitor cocktail (Roche) and phosphatase inhibitors (Bimake). Following lysis, cell extracts were centrifuged at 13400 × g for 15 min at 4 °C to remove cellular debris. The clarified supernatants were then incubated with primary antibodies overnight at 4 °C with gentle rotation. For Flag‐tagged protein immunoprecipitation, Flag M2 magnetic beads (Sigma) were added to the lysate‐antibody mixture and incubated for an additional 4 h at 4 °C. The immunocomplexes were washed three times with lysis buffer under stringent conditions (5 min per wash with rotation). Finally, the precipitated proteins were eluted and analyzed by immunoblotting as previously described.^[ [35] ^]
h) HCT116 cells were pretreated with Insig1/2 loop1 peptide (15 μM) for 1 h before IGF1 (100 ng ml⁻¹) stimulation.

The test system of another assay is SREBP1. Kind of assay: Immunofluorescence of SREBP1 nuclear accumulation. To be noted: Huh7 cells, peptide 15 μM, IGF1 100 ng/mL 8 h. As to the method:
Figure 1 The Insig1/2 loop 1 peptide binds to S90‐phosphorylated PCK1 and blocks PCK1‐mediated SREBP activation and tumor cell proliferation. Immunoblotting analyses were performed using the indicated antibodies; representative results from three independent experiments are shown (IP, immunoprecipitation; WB, western blot). a) Huh7 cells expressing various Insig1 (top) or Insig2 (bottom) truncation mutants were treated with or without IGF1 (100 ng mL^−1) for 1 h. b,c) Biolayer interferometry assays (Sartorius Octet) were employed to measure the binding affinity of Insig1/2 loop 1 peptide to GST‐PCK1 or GST‐PCK1 pS90 proteins. […] Statistical significance was determined by one‐way analysis of variance (ANOVA). g) Following pretreatment with Insig1/2 loop 1 peptide (15 µM) and IGF1 stimulation (100 ng mL^−1, 8 h), Huh7 cells were subjected to immunofluorescence analysis (scale bar: 10 µm). h) Quantitative PCR analysis of SREBP1 target gene GPAM in Huh7 cells pretreated with Insig1/2 loop 1 peptide (15 µM) and stimulated with IGF1 (100 ng mL^−1) for 10 h. […] Statistical significance was determined by one‐way analysis of variance (ANOVA). i) Quantitative PCR analysis of SREBP1 target gene FASN in Huh7 cells pretreated with Insig1/2 loop 1 peptide (15 µM) and stimulated with IGF1 (100 ng mL^−1) for 10 h. […]

The next assay deals with SREBP1 activity. Briefly: SRE luciferase assay. Particulars: Huh7 cells, peptide 15 µM 1 h, IGF1 100 ng/mL 14 h, normalized to β-galactosidase, n = 3.

As for “RKKRRQRRRLYPCIDSHLGEPHKFKRE [Insig1/2 loop 1 peptide]”, the “Insig1 S207 phosphorylation” value in assay [1] is recorded as “inhibited”. Moreover, the “nuclear accumulation of SREBP1” value in the assay on SREBP1 is given as “markedly inhibited”. For the same sequence, the “SREBP1 activity (SRE luciferase)” value in the assay on SREBP1 activity is “markedly inhibited”.
